The source of these data is ChEMBL document CHEMBL1126395, “The synthesis of conformationally-restricted diacyl glycerol analogues” (1992).

SMILES strings stand for the structures. Active and inactive are the calls of the source. No cut-off for these calls is given here.

Assay [1] concerns the target Protein kinase C (PKC) (Rattus norvegicus) (UniProt P05696+P68403+P09216+P63319+P09215+Q64617+Q9WTQ0+P09217). Put plainly: Antagonist activity against protein Kinase C. It is filed as functional.
For assay [2], the system named is HL-60. Briefly: Compound was tested for the inhibition of the growth of HL60 cells at a concentration 10E-4 M; reduction of growth was observed. It is filed as functional. Conditions: Homo sapiens.
Assay [3] relates to HL-60. Put plainly: Compound was tested for the inhibition of the growth of HL60 cells at a concentration 10E-4 M; NS no significant affect is observed. The class given is functional, cell-based. Conditions: Homo sapiens.

Turning to `CCCCCCCOC(=O)O[C@H]1OC(=O)[C@H](O)[C@@H]1OC(=O)OCCCCCCC`, the result in assay [1] was inactive.

As to `CCCCCCCOC(=O)O[C@H]1CC(=O)O[C@@H]1CO`, the result in assay [1] was inactive. The compound further had an inhibition at 100 µM in assay [2] of 20%.

As to `CCCCCCCOC(=O)O[C@H]1OC(=O)C[C@@H]1O`, in assay [3], the result was inactive.

Regarding `CCCCCCCOC(=O)O[C@H]1OC(=O)[C@H](O)[C@@H]1O`, the outcome in assay [1] was inactive.

As for `CCCCCCCOC(=O)O[C@@H]1[C@@H](CO)OC(=O)[C@@H]1OC(=O)OCCCCCCC`, in assay [1], the outcome was inactive.
